Laboratory results: a compilation of properties of binary mixtures (doi:10.1016/j.molliq.2017.08.088)

Experiment: xn = mol fraction of the nth substance listed
Details: 101 kPa

CN(CCO)CCO + CCCC[n+]1ccn(C)c1.F[B-](F)(F)F
viscosity [mPa·s]
Details	x2 = 0.1002	x2 = 0.1974	x2 = 0.3	x2 = 0.4001	x2 = 0.4998	x2 = 0.6	x2 = 0.6997	x2 = 0.7998	x2 = 0.8999
293.15 K	89.3	82.9	78.9	75.2	73.6	74.2	79.1	87.9	–
303.15 K	49.9	46.2	–	42.4	42.4	43.8	47.5	53.1	–
313.15 K	30	28	26.4	26.1	26.4	27.7	30.4	34	41.2
323.15 K	18.9	–	17.2	17.2	17.7	–	20.6	23.3	27.8
333.15 K	12.75	–	11.84	12.03	12.44	13.35	14.8	–	19.8
